The values below come from paper PMC11111404, “Discovery of potent small-molecule inhibitors of lipoprotein(a) formation” (Nature, 2024).

In general, Kd refers to the equilibrium constant for the complex coming apart. The Tmax is the time at which the peak concentration occurs. Usually Cmax stands for the highest concentration seen after dosing.

Read-outs that look alike come from different tables or passages of the source.

Data set [1] has as its target T1, K-2 to K-3 domains of human plasminogen (Homo sapiens, UniProt P00747).
T1 construct: that for the K-2 to K-3 domains of human plasminogen; made in house
T1 sequence (P00747 184-352 limits assumed): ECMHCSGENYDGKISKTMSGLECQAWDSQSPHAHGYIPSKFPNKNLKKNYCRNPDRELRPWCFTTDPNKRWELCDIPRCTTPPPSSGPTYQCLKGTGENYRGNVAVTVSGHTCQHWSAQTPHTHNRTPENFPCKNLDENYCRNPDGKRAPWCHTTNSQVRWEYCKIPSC
The experiment in a line: ITC binding to human plasminogen K-2 to K-3. As for the experimental part: The nucleotide sequence encoding the human LPA gene (NP_005568.2) was inserted into a mammalian expression vector containing a cytomegalovirus promoter. Protein expression was performed by transient transfection of human embryonic kidney 293 (HEK293) cells cultured in serum-free medium. The culture medium was collected five days after transfection and human apo(a) protein was purified using L-lysine affinity chromatography. Nucleotide sequences encoding various KIV domains of human apo(a) and human and rat plasminogen were inserted into a pET21a Escherichia coli expression vector. […] All protein concentrations were determined by A280. […] The microsyringe was loaded with a solution of the respective compounds, with the concentration measured by quantitative nuclear magnetic resonance, and was inserted into the calorimetric cell prefilled with the respective recombinant proteins of known concentration in ITC buffer. […] Thermodynamic parameters were calculated using the basic equation of thermodynamics (ΔG = ΔH - TΔS = -RTlnKd), where ΔG, ΔH and ΔS are the changes in free energy, enthalpy and entropy of binding, respectively; Kd is the equilibrium dissociation constant; T is the absolute temperature ([…]); and R is the gas constant (1.987 cal mol^-1 K^-^1). […]

Data set [2] can be described thus: Pharmacokinetics in monkey plasma after oral dosing. The following applies: for AUC(0-t): day 15, read-out: AUC(0-96 hr). In kind it is in vivo. On the procedure: Plasma samples were collected from all monkeys before dosing and at four-hour time points only on days 1, 3, 5, 9 and 14. A full PK profile was obtained in the first three monkeys of each dose group on day 15, collecting samples before dosing and 1, 2, 4, 8, 12, 24, 48 and 96 h after dosing. Concentrations of compounds were evaluated in plasma samples using a non-GLP LC–MS/MS assay. The non-compartmental plasma PK parameters were calculated using Watson (v.7.5).

A further data set concerns plasmin activity. Also noted: method as in PMID 37638695. The following applies: human phase 1 study; cited from earlier work.

Compound `Cl.Cl.O=C(Nc1cccc(C[C@H](C(=O)O)[C@H]2CCNC2)c1)Nc1cccc(C[C@H](C(=O)O)[C@H]2CCNC2)c1` [LSN3441732] yielded a Kd in data set [1] of 1600 nM.
For the compound `O=C(O)[C@@H](Cc1cccc(CN(Cc2cccc(C[C@H](C(=O)O)[C@H]3CCNC3)c2)Cc2cccc(C[C@H](C(=O)O)[C@H]3CCNC3)c2)c1)[C@H]1CCNC1` [LY3473329], the Tmax was determined as 7 ± 5.7 h in data set [2] (Chinese cynomolgus, oral 1 mg/kg, day 15) and 1 ± 1 h in data set [2] (Chinese cynomolgus, oral 100 mg/kg, day 15). The compound also displayed a Cmax in data set [2] (Chinese cynomolgus, oral 10 mg/kg, day 15) of 3.47 µM. Also, the AUC(0-t) in data set [2] (Chinese cynomolgus, oral 10 mg/kg) is 207 µM·h; in data set [2] (cynomolgus, oral 100 mg/kg) it was 294 µM·h. The “plasmin activity at oral doses lowering Lp(a)” value in the data set on plasmin activity is on record as “without affecting plasmin activity”.
